Patent publication US12257246B2, “Composition of 2,4,6-trifluoro-n-[6-(1-methyl-piperidin-4-carbonyl)-pyridin-2-yl[-benzamide” (CoLucid Pharmaceuticals, Inc., priority 2009, dated 2025)

Experiments:
migraine = conditions: in vivo; cited from earlier work
rabbit saphenous vein [1] = conditions: EC50 divided by %max KCl
rabbit saphenous vein [2] = assay: cells; conditions: Oryctolagus cuniculus, read-out: saphenous vein contraction EC50

| Structure (SMILES) | efficacy in acute treatment of migraine (migraine) | corrected vasoconstriction EC50 (rabbit saphenous vein [1]) | EC50 (rabbit saphenous vein [2]) |
| --- | --- | --- | --- |
| CN1CCC(c2c[nH]c3ccc(NC(=O)c4ccc(F)cc4)cc23)CC1 [LY334370] | proved effective |  |  |
| CNS(=O)(=O)Cc1ccc2[nH]cc(CCN(C)C)c2c1 [sumatriptan] |  | 10.3 nM | 660 nM |
